Reference: patent US20240383852A1, “ANTI-VIRAL COMPOUNDS” (INFEX Therapeutics Limited, priority 2021, published 2024)
Structures can show the parent of a compound that is named as a salt. Where two headings read alike, the source gives them in different places.

Experiments:
[1] = system: human Hep G2 cells (ATCC HB-8065); test: Cytotoxicity in Hep G2 cells (CellTiter-Glo); assay type: cell-based
[2] = target: T1, SARS-CoV-2 PLpro (Severe acute respiratory syndrome coronavirus 2, UniProt P0DTD1); test: biochemical
T1 construct: containing 60 nM papain-like protease

[3] = system: SARS-CoV-2; test: Anti-viral potency in VERO E6 cells (cytopathic viral activity, crystal violet); assay type: cell-based; conditions: Severe acute respiratory syndrome coronavirus 2, Vero C1008, 48 h, read-out: SARS-COV-2 EC50 (μM)
[4] = Hep G2 cells, 100 μM test article, 24-hour exposure
[5] = 60 nM papain-like protease, 50 μM Z-RLRGG-AMC, pH 7.5, 37° C., read-out: SARS-CoV-2 PLpro IC50

| SMILES | % Cell Viability [1, 4] | IC50 [2, 5] | EC50 [3] | % Cell Viability ([1]; human, 24 h, 100 μM) | IC50 [2] |
| --- | --- | --- | --- | --- | --- |
| COc1ccc([C@@H](C)NC(=O)c2cc(N3CC4CNCC4C3)ccc2C)cc1-c1cnn(C)c1 (stereo partly drawn) [Example 261, 5-(2,3,3a,4,6,6a-Hexahydro-1H-pyrrolo[3,4-c]pyrrol-5-yl)-N-[(1R)-1-[4-methoxy-3-(1-methylpyrazol-4-yl)phenyl]ethyl]-2-methyl-benzamide] | 49.2% | < 2000 nM | < 15 µM | – | – |
| COc1ccc([C@@H](C)NC(=O)c2cc(N3C[C@H]4CC[C@@H](C3)N4)ccc2C)cc1-c1cnn(C)c1 [Example 266, 5-[(1S,5R)-3,8-Diazabicyclo[3.2.1]octan-3-yl]-N-[(1R)-1-[4-methoxy-3-(1-methylpyrazol-4-yl)phenyl]ethyl]-2-methyl-benzamide hydrochloride salt] | – | – | < 5 µM | 61.1% | < 2000 nM |
| COc1cc(-c2cnn(C)c2)cc([C@@H](C)NC(=O)c2cc(N3C[C@H]4CC[C@@H](C3)N4)ccc2C)c1 [Example 272, 5-[(1R,5S)-3,8-diazabicyclo[3.2.1]octan-3-yl]-N-[(1R)-1-[3-methoxy-5-(1-methyl-1H-pyrazol-4-yl)phenyl]ethyl]-2-methylbenzamide] | – | – | < 5 µM | 74.3% | < 2000 nM |
| COCCOc1ccc([C@@H](C)NC(=O)c2cc(N3CCN(C)CC3)ccc2C)cc1-c1cnn(C)c1 [Example 280, N-[(1R)-1-[4-(2-Methoxyethoxy)-3-(1-methylpyrazol-4-yl)phenyl]ethyl]-2-methyl-5-(4-methylpiperazin-1-yl)benzamide] | 76.7% | < 2000 nM | < 5 µM | – | – |
| COc1cc(-c2cc(C(=O)N(C)C)n(C)c2)cc([C@@H](C)NC(=O)c2cc(N3CCN(C)CC3)ccc2C)c1 [Example 289, 4-[3-Methoxy-5-[(1R)-1-[[2-methyl-5-(4-methylpiperazin-1-yl)benzoyl]amino]ethyl]phenyl]-N,N,1-trimethyl-pyrrole-2-carboxamide] | 59.5% | < 2000 nM | < 5 µM | – | – |
| COc1cc([C@@H](C)NC(=O)c2cc(N3CCN(C)CC3)ccc2C)ccc1OCCN1CCOCC1 [Example 293, N-[(1R)-1-[3-Methoxy-4-(2-morpholinoethoxy)phenyl]ethyl]-2-methyl-5-(4-methylpiperazin-1-yl)benzamide] | 102.3% | < 2000 nM | < 5 µM | – | – |
| COc1ccc([C@@H](C)NC(=O)c2cc(N3CCN(C)CC3)ccc2C)cc1OCC1CC1 [Example 296, N-[(1R)-1-[3-(Cyclopropylmethoxy)-4-methoxy-phenyl]ethyl]-2-methyl-5-(4-methylpiperazin-1-yl)benzamide] | 76.1% | < 2000 nM | < 15 µM | – | – |
| COc1ccc([C@@H](C)NC(=O)c2cc(C3CCN(C)CC3)ccc2C)cc1-c1cnn(C)c1 [Example 300, N-[(1R)-1-[4-Methoxy-3-(1-methylpyrazol-4-yl)phenyl]ethyl]-2-methyl-5-(1-methyl-4-piperidyl)benzamide] | 74.7% | < 2000 nM | < 5 µM | – | – |
| COc1cc([C@@H](C)NC(=O)c2cc(N3CCN(C)CC3)ccc2C)ccc1-c1cnn(C)c1 [Example 306, N-[(1R)-1-[3-Methoxy-4-(1-methylpyrazol-4-yl)phenyl]ethyl]-2-methyl-5-(4-methylpiperazin-1-yl)benzamide] | 88.4% | < 2000 nM | < 5 µM | – | – |
